In ChEMBL document CHEMBL4417633, “Inhibitory polypeptides specific to WNT inhibitors” (2017):
The source made the active and inactive calls. The calls are words filed in the database; no cut-off is given here. Where a SMILES comes first, the peptide text is derived from it.

Experiments:
[1] = target: T1, Dickkopf-related protein 1 (Homo sapiens) (UniProt O94907); assay: Inhibition of biotin-labeled human recombinant DKK1 assessed as reduction in DKK1 interaction with LRP-6/Fc incubated overnight by chemiluminescence based Alpha-screen assay
T1 sequence (whole entry): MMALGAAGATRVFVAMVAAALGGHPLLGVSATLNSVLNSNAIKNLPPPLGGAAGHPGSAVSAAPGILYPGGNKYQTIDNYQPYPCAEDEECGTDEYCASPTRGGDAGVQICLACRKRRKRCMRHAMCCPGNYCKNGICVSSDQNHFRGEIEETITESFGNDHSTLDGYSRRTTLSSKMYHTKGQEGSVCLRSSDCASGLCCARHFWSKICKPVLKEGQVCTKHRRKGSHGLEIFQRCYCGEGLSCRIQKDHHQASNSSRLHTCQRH

[2] = target: T2, Dickkopf WNT-signaling pathway inhibitor 1 (Rattus norvegicus) (UniProt A6I0Z0); assay: Inhibition of biotin-labeled rat recombinant DKK1 assessed as reduction in DKK1 interaction with LRP-6/Fc incubated overnight by chemiluminescence based Alpha-screen assay
T2 sequence (whole entry): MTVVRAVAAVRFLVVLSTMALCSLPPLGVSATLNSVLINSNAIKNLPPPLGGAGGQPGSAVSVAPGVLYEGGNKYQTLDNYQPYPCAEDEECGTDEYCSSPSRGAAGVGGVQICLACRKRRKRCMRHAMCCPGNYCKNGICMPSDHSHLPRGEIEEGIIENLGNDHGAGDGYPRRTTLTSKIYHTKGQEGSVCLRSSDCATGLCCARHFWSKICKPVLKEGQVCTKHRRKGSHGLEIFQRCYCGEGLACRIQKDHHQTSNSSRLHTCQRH

[3] = target: T3, Dickkopf-related protein 1 (Homo sapiens, UniProt O94907); assay: Inhibition of human DKK1 in MC3T3E1/TetON-Wnt1/STF-Luc#5 cells assessed as DKK1 neutralizing activity by Wnt1-induced TCF/LEF luciferase reporter gene assay
T3 sequence (O94907 whole entry): T1 sequence (whole entry)

inhibition [1]	inhibition [2]	IC50 [3] [nM]	SMILES
Active	Active	0.8 to 3	CC[C@H](C)[C@H](NC(=O)[C@H](CS)NC(=O)[C@H](CC(=O)O)NC(=O)[C@@H]1CCCN1C(=O)[C@H](Cc1ccccc1)NC(=O)CNC(=O)[C@H](CC(=O)O)NC(=O)[C@H](CS)NC(=O)[C@H](CCCNC(=N)N)NC(=O)[C@H](Cc1c[nH]c2ccccc12)NC(=O)[C@H](CCC(=O)O)NC(=O)[C@H](CCSC)NC(=O)[C@@H]1CCCN1C(=O)[C@H](Cc1ccc(O)cc1)NC(=O)[C@H](CS)NC(=O)[C@H](Cc1cnc[nH]1)NC(=O)[C@H](CCCCN)NC(=O)[C@H](Cc1ccc(O)cc1)NC(=O)[C@H](CCC(=O)O)NC(=O)[C@H](CCCNC(=N)N)NC(=O)[C@H](CS)NC(=O)[C@H](CCC(N)=O)NC(=O)[C@H](Cc1ccccc1)NC(=O)[C@H](Cc1ccc(O)cc1)NC(=O)[C@H](CO)NC(=O)[C@H](CCC(=O)O)NC(=O)[C@@H]1CCCN1C(=O)[C@@H](N)CS)C(=O)N[C@@H](CC(=O)O)C(=O)N[C@@H](CO)C(=O)N[C@@H](CO)C(=O)N[C@@H](CC(=O)O)C(=O)N[C@@H](CCC(=O)O)C(=O)N[C@H](C(=O)N[C@@H](CC(=O)O)C(=O)N[C@@H](CS)C(=O)NCC(=O)NCC(=O)NCC(=O)NCC(=O)O)[C@@H](C)O (H-CPESYFQCREYKHCYPMEWRCDGFPDCIDSSDETDCGGGG-OH)
Active	Active	0.8 to 3	CSCC[C@H](NC(=O)[C@@H]1CCCN1C(=O)[C@H](Cc1ccc(O)cc1)NC(=O)[C@H](CS)NC(=O)[C@H](Cc1cnc[nH]1)NC(=O)[C@@H]1CCCN1C(=O)[C@H](Cc1cnc[nH]1)NC(=O)[C@H](CC(N)=O)NC(=O)[C@H](CCCNC(=N)N)NC(=O)[C@H](CS)NC(=O)[C@H](CCC(N)=O)NC(=O)[C@H](Cc1ccccc1)NC(=O)[C@H](Cc1ccc(O)cc1)NC(=O)[C@H](CO)NC(=O)[C@H](CCC(=O)O)NC(=O)[C@@H]1CCCN1C(=O)[C@@H](N)CS)C(=O)N[C@@H](CCC(=O)O)C(=O)N[C@@H](Cc1c[nH]c2ccccc12)C(=O)N[C@@H](CCCNC(=N)N)C(=O)N[C@@H](CS)C(=O)N[C@@H](CC(=O)O)C(=O)NCC(=O)N[C@@H](Cc1ccccc1)C(=O)N[C@@H](CCC(=O)O)C(=O)N[C@@H](CC(=O)O)C(=O)N[C@@H](CS)C(=O)N[C@H](C(=O)N[C@@H](CC(=O)O)C(=O)NCC(=O)N[C@@H](CO)C(=O)N[C@@H](CC(=O)O)C(=O)N[C@@H](CCC(=O)O)C(=O)N[C@@H](CC(C)C)C(=O)N[C@@H](CC(=O)O)C(=O)N[C@@H](CS)C(=O)NCC(=O)NCC(=O)NCC(=O)NCC(=O)O)C(C)C (H-CPESYFQCRNHPHCYPMEWRCDGFEDCVDGSDELDCGGGG-OH)
Active	Active	0.8 to 3	CSCC[C@H](NC(=O)[C@@H]1CCCN1C(=O)[C@H](Cc1ccc(O)cc1)NC(=O)[C@H](CS)NC(=O)[C@H](Cc1cnc[nH]1)NC(=O)[C@@H]1CCCN1C(=O)[C@H](Cc1cnc[nH]1)NC(=O)[C@H](CC(N)=O)NC(=O)[C@H](CCCNC(=N)N)NC(=O)[C@H](CS)NC(=O)[C@H](CCC(N)=O)NC(=O)[C@H](Cc1ccccc1)NC(=O)[C@H](Cc1ccc(O)cc1)NC(=O)[C@H](CO)NC(=O)[C@H](CCC(=O)O)NC(=O)[C@@H]1CCCN1C(=O)[C@@H](N)CS)C(=O)N[C@@H](CCC(=O)O)C(=O)N[C@@H](Cc1c[nH]c2ccccc12)C(=O)N[C@@H](CCCNC(=N)N)C(=O)N[C@@H](CS)C(=O)N[C@@H](CC(=O)O)C(=O)NCC(=O)N[C@@H](Cc1ccccc1)C(=O)N1CCC[C@H]1C(=O)N[C@@H](CC(=O)O)C(=O)N[C@@H](CS)C(=O)N[C@H](C(=O)N[C@@H](CC(=O)O)C(=O)NCC(=O)N[C@@H](CO)C(=O)N[C@@H](CC(=O)O)C(=O)N[C@@H](CCC(=O)O)C(=O)N[C@@H](CC(C)C)C(=O)N[C@@H](CC(=O)O)C(=O)N[C@@H](CS)C(=O)NCC(=O)NCC(=O)NCC(=O)NCC(=O)O)C(C)C (H-CPESYFQCRNHPHCYPMEWRCDGFPDCVDGSDELDCGGGG-OH)
Active	Active	0.8 to 3	CC[C@H](C)[C@H](NC(=O)[C@H](CS)NC(=O)[C@H](CC(=O)O)NC(=O)[C@@H]1CCCN1C(=O)[C@H](Cc1ccccc1)NC(=O)CNC(=O)[C@H](CC(=O)O)NC(=O)[C@H](CS)NC(=O)[C@H](CCCNC(=N)N)NC(=O)[C@H](Cc1c[nH]c2ccccc12)NC(=O)[C@H](CCC(=O)O)NC(=O)[C@H](CCSC)NC(=O)[C@@H]1CCCN1C(=O)[C@H](Cc1ccc(O)cc1)NC(=O)[C@H](CS)NC(=O)[C@H](Cc1cnc[nH]1)NC(=O)[C@@H]1CCCN1C(=O)[C@H](Cc1cnc[nH]1)NC(=O)[C@H](CC(N)=O)NC(=O)[C@H](CCCNC(=N)N)NC(=O)[C@H](CS)NC(=O)[C@H](CCC(N)=O)NC(=O)[C@H](Cc1ccccc1)NC(=O)[C@H](Cc1ccc(O)cc1)NC(=O)[C@H](CO)NC(=O)[C@@H](NC(=O)[C@@H]1CCCN1C(=O)[C@@H](N)CS)C(C)C)C(=O)N[C@@H](CC(=O)O)C(=O)NCC(=O)N[C@@H](CO)C(=O)N[C@@H](CC(=O)O)C(=O)N[C@@H](CCC(=O)O)C(=O)N[C@@H](CCC(=O)O)C(=O)NCC(=O)N[C@@H](CS)C(=O)NCC(=O)NCC(=O)NCC(=O)NCC(=O)O (H-CPVSYFQCRNHPHCYPMEWRCDGFPDCIDGSDEEGCGGGG-OH)
Active	Active	0.8 to 3	CSCC[C@H](NC(=O)[C@@H]1CCCN1C(=O)[C@H](Cc1ccc(O)cc1)NC(=O)[C@H](CS)NC(=O)[C@H](Cc1cnc[nH]1)NC(=O)[C@@H]1CCCN1C(=O)[C@H](Cc1cnc[nH]1)NC(=O)[C@H](CC(N)=O)NC(=O)[C@H](CCCNC(=N)N)NC(=O)[C@H](CS)NC(=O)[C@H](CCC(N)=O)NC(=O)[C@H](Cc1ccccc1)NC(=O)[C@H](Cc1ccc(O)cc1)NC(=O)[C@H](CO)NC(=O)[C@@H](NC(=O)[C@@H]1CCCN1C(=O)[C@@H](N)CS)C(C)C)C(=O)N[C@@H](CCC(=O)O)C(=O)N[C@@H](Cc1c[nH]c2ccccc12)C(=O)N[C@@H](CCCNC(=N)N)C(=O)N[C@@H](CS)C(=O)N[C@@H](CC(=O)O)C(=O)NCC(=O)N[C@@H](Cc1ccccc1)C(=O)N1CCC[C@H]1C(=O)N[C@@H](CC(=O)O)C(=O)N[C@@H](CS)C(=O)N[C@@H](CC(C)C)C(=O)N[C@@H](CC(=O)O)C(=O)N[C@@H](CCC(=O)O)C(=O)N[C@@H](CO)C(=O)N[C@@H](CC(=O)O)C(=O)N[C@@H](CCC(=O)O)C(=O)N[C@@H](CCCCN)C(=O)NCC(=O)N[C@@H](CS)C(=O)NCC(=O)NCC(=O)NCC(=O)NCC(=O)O (H-CPVSYFQCRNHPHCYPMEWRCDGFPDCLDESDEKGCGGGG-OH)
Active	Active	0.8 to 3	CC[C@H](C)[C@H](NC(=O)[C@H](CCC(=O)O)NC(=O)[C@H](CC(=O)O)NC(=O)[C@H](CO)NC(=O)[C@H](C)NC(=O)[C@H](CC(=O)O)NC(=O)[C@@H](NC(=O)[C@H](CS)NC(=O)[C@H](CC(=O)O)NC(=O)[C@@H]1CCCN1C(=O)[C@H](Cc1ccccc1)NC(=O)CNC(=O)[C@H](CC(=O)O)NC(=O)[C@H](CS)NC(=O)[C@H](CCCNC(=N)N)NC(=O)[C@H](Cc1c[nH]c2ccccc12)NC(=O)[C@H](CCC(=O)O)NC(=O)[C@H](CCSC)NC(=O)[C@@H]1CCCN1C(=O)[C@H](Cc1ccc(O)cc1)NC(=O)[C@H](CS)NC(=O)[C@H](Cc1cnc[nH]1)NC(=O)[C@@H]1CCCN1C(=O)[C@H](Cc1cnc[nH]1)NC(=O)[C@H](CC(N)=O)NC(=O)[C@H](CCCNC(=N)N)NC(=O)[C@H](CS)NC(=O)[C@H](CCC(N)=O)NC(=O)[C@H](Cc1ccccc1)NC(=O)[C@H](Cc1ccc(O)cc1)NC(=O)[C@H](CO)NC(=O)[C@@H](NC(=O)[C@@H]1CCCN1C(=O)[C@@H](N)CS)C(C)C)C(C)C)C(=O)NCC(=O)N[C@@H](CS)C(=O)NCC(=O)NCC(=O)NCC(=O)NCC(=O)O (H-CPVSYFQCRNHPHCYPMEWRCDGFPDCVDASDEIGCGGGG-OH)
